target: T1, AMPK complex 1 (containing alpha1beta1gamma1) (Homo sapiens, UniProt Q13131+Q9Y478); experiment: In vitro AMPK activation assay (ADP-Glo Kinase Assay); format: biochemical; details: 30 μM ATP, 1 μM peptide, 60 min, room temperature
T1 construct: GST (Glutathion S transferase) (N); made in house; host or cells: baculovirus; virus made in Sf9, expression in High Five cells
Excerpt: Activated AMPK complex 1 (containing alpha1beta1gamma1) was obtained from baculovirus expression system. The gene encoding AMPK alpha1 was cloned into the pACG2T vector (BD Biosciences) to obtain a N-terminal Glutathion S transferase (GST)-fusion protein. The genes encoding AMPK beta 1 and gamma1 were cloned into the p2Bac dual multiple cloning site vector (Invitrogen) with beta1 under the control of the p10 promoter and gamma1 under the control of the PH promoter. The transfer vectors containing AMPK were co-transfected individually with AcPNV BacMagic-3 DNA (EMD Millipore) in Sf9 cells and the recombinant baculoviruses were harvested after 5 days, followed by 3 rounds of amplification of the virus stock in Sf9 cells. AMPK (alpha1beta1gamma1) was expressed in High Five 5 cells by co-infection of recombinant alpha1 virus and recombinant beta1/gamma1 virus for 72 h at 27° C. Cells were harvested by centrifugation and lysed by 3 freeze/thaw cycles in PBS with 10% glycerol and protease inhibitor cocktail (Roche). After centrifugation AMPK a1b1g1 in the supernatant was captured by immobilized glutathione (GE Healthcare), impurities were washed away with PBS and AMPK alpha1beta1gamma1 was eluted with PBS containing 20 mM reduced gluthathione. The protein buffer was then exchanged to PBS with 10% glycerol and protein concentration was determined by UV absorbance.
The white 384-well Optiplates (cat.no. 6007299) were purchased from PerkinElmer. The V9101 ADP-Glo Kinase Assay and ultra pure ATP (V915A) was purchased from Promega. The substrate for AMPK (NH2-HMRSAMSGLHLVKRR_CONH2) was purchased from Upstate (12-355).
Compounds were tested in either serial dilutions or single dose concentrations. The serial compound dilutions were prepared in 100% DMSO automatically. The final DMSO concentration in the assay was 0.1%.
The Compound Stock Solutions were 10 mM in 100% DMSO. The compounds were solubilised at room temperature.
In the 384-well plates 1.25 ul of test compound in assay buffer was mixed with 1.25 ul of AMPK and 1.25 μl of the peptide (final concentration of 1 μM) and 1.25 μl of ATP (final concentration of 30 μM), both dissolved in assay buffer. This step was followed by an incubation time of 60 min. Then 5 μl of ADP Glo Reagent was added. This was followed by 40 min of incubation. Then 10 μl of Kinase Detection Reagent was admixed. The plates were sealed and after an incubation period of 30 min, the luminescence signal was measured in an Envision reader. All incubation steps were accomplished at room temperature.
Each assay microtiter plate contained wells with vehicle controls instead of compound (0.1% DMSO in water) as reference for the low signal (100% CTL, low signal), and wells with serial dilutions of AMP (final 30 μM) as reference for high signals.
The luminescence signal generated was proportional to the ADP concentration produced and was correlated with AMPK activity. The analysis of the data was performed by the calculation of the percentage of ATP consumption of AMPK in the presence of the test compound compared to the consumption of ATP in the presence of AMPK without compound. (RLU(sample)/RLU(low control))*100[RLU=relative luminescence units]
An activator of the AMPK enzyme gave values above 100% CTL.
EC50 values based on dose response curves are calculated with the XIFIT software using the 4 Parameter Logistic Model or Sigmoidal Dose-Response Model.

T1 sequence (Q13131 whole entry): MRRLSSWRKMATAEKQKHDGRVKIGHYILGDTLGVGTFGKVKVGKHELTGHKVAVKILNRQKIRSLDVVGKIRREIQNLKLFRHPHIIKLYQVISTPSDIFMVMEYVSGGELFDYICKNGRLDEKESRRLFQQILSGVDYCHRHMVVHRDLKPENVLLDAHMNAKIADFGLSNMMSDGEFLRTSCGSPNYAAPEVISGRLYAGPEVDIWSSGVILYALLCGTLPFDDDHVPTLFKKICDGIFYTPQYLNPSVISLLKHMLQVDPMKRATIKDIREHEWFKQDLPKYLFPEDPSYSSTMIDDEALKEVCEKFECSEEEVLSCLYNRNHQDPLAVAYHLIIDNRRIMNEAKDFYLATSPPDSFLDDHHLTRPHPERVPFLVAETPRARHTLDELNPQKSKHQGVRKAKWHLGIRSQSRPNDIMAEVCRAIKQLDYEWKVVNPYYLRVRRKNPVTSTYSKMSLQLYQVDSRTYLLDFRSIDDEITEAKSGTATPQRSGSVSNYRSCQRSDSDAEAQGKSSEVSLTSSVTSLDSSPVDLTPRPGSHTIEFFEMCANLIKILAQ
T1 sequence (Q9Y478 whole entry): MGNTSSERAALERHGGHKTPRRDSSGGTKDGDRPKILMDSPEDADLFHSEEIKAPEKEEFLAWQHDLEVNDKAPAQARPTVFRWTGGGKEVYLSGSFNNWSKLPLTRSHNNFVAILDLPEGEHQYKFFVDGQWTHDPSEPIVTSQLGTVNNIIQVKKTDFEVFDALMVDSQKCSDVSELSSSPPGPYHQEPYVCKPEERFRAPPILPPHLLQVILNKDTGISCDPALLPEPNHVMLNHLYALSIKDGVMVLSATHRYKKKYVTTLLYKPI
T1 sequence (P54619 whole entry partner): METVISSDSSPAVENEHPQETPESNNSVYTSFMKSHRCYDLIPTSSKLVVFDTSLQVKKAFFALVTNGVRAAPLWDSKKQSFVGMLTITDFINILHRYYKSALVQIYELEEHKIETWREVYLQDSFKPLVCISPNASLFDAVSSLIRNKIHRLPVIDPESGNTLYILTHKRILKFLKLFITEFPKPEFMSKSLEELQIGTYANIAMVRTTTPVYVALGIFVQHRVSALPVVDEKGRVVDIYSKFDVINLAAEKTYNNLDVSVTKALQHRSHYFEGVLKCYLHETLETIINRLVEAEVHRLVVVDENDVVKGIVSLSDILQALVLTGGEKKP

SMILES | EC50
N=S1(=O)CCC(c2ccc(-c3nc4[nH]c(O[C@@H]5CO[C@H]6[C@@H]5OC[C@H]6O)nc4cc3Cl)cc2)CC1 (single isomer, unassigned) [Example 54] | 114 nM
N=S1(=O)CCC(c2ccc(-c3nc4[nH]c(O[C@@H]5CO[C@H]6[C@@H]5OC[C@H]6O)nc4cc3Cl)cc2)CC1 (single isomer, unassigned) [Example 55] | 26 nM
CS(C)(=O)=Nc1ccc(-c2nc3[nH]c(O[C@@H]4CO[C@H]5[C@@H]4OC[C@H]5O)nc3cc2Cl)cc1 [Example 1] | 275 nM
CS(C)(=O)=NC(=O)c1ccc(-c2nc3[nH]c(O[C@@H]4CO[C@H]5[C@@H]4OC[C@H]5O)nc3cc2Cl)cc1 [Example 3] | 402 nM
N=S1(=O)CCN(c2ccc(-c3nc4[nH]c(O[C@@H]5CO[C@H]6[C@@H]5OC[C@H]6O)nc4cc3Cl)cc2)CC1 [Example 4] | 22 nM
CN=S1(=O)CCN(c2ccc(-c3nc4[nH]c(O[C@@H]5CO[C@H]6[C@@H]5OC[C@H]6O)nc4cc3Cl)cc2)CC1 [Example 5] | 62 nM
CS(C)(=O)=NC(=O)c1ccc(-c2ccc(-c3nc4[nH]c(O[C@@H]5CO[C@H]6[C@@H]5OC[C@H]6O)nc4cc3Cl)cc2)cc1 [Example 6, N-4′-(6-Chloro-2-((3R,3aR,6R,6aR)-6-hydroxyhexahydrofuro[3,2-b]furan-3-yloxy)-3H-imidazo[4,5-b]pyridin-5-yl)biphenyl-4-carbonyl-S,S-dimethylsulfoximide] | 2 nM
O=S1(=Nc2ccc(-c3ccc(-c4nc5[nH]c(O[C@@H]6CO[C@H]7[C@@H]6OC[C@H]7O)nc5cc4Cl)cc3)cc2)CCCC1 [Example 8, (3R,3aR,6R,6aR)-6-{6-Chloro-5-[4′-(1-oxo-tetrahydro-1λ4-thiophen-1-ylideneamino)-biphenyl-4-yl]-3H-imidazo[4,5-b]pyridin-2-yloxy}-hexahydro-furo[3,2-b]furan-3-ol] | 4 nM
C[S@@](=O)(=Nc1ccc(-c2nc3[nH]c(O[C@@H]4CO[C@H]5[C@@H]4OC[C@H]5O)nc3cc2Cl)cc1)c1ccccc1 [Example 9, (S)-N-(4-(6-Chloro-2-((3R,3aR,6R,6aR)-6-hydroxyhexahydrofuro[3,2-b]furan-3-yloxy)-3H-imidazo[4,5-b]pyridin-5-yl)phenyl)-S-methyl-S-phenylsulfoximide] | 14 nM
CCS(=O)(CC)=Nc1ccc(-c2ccc(-c3nc4[nH]c(O[C@@H]5CO[C@H]6[C@@H]5OC[C@H]6O)nc4cc3Cl)cc2)cc1 [Example 11, N-(4′-(6-Chloro-2-((3R,3aR,6R,6aR)-6-hydroxyhexahydrofuro[3,2-b]furan-3-yloxy)-3H-imidazo[4,5-b]pyridin-5-yl)biphenyl-4-yl)-S,S-diethylsulfoximide] | 3 nM
C[S@](=O)(=Nc1ccc(-c2nc3[nH]c(O[C@@H]4CO[C@H]5[C@@H]4OC[C@H]5O)nc3cc2Cl)cc1)c1ccccc1 [Example 12, (R)-N-(4-(6-Chloro-2-((3R,3aR,6R,6aR)-6-hydroxyhexahydrofuro[3,2-b]furan-3-yloxy)-3H-imidazo[4,5-b]pyridin-5-yl)phenyl)-S-methyl-S-phenylsulfoximide] | 581 nM
CCS(C)(=O)=Nc1ccc(-c2ccc(-c3nc4[nH]c(O[C@@H]5CO[C@H]6[C@@H]5OC[C@H]6O)nc4cc3Cl)cc2)cc1 (stereo partly drawn) [Example 13, N-(4′-(6-Chloro-2-((3R,3aR,6R,6aR)-6-hydroxyhexahydrofuro[3,2-b]furan-3-yloxy)-3H-imidazo[4,5-b]pyridin-5-yl)biphenyl-4-yl)-S-ethyl-S-methylsulfoximide] | 4 nM
CS(C)(=O)=Nc1cccc(-c2ccc(-c3nc4[nH]c(O[C@@H]5CO[C@H]6[C@@H]5OC[C@H]6O)nc4cc3Cl)cc2)c1 [Example 14, N-(4′-(6-Chloro-2-((3R,3aR,6R,6aR)-6-hydroxyhexahydrofuro[3,2-b]furan-3-yloxy)-3H-imidazo[4,5-b]pyridin-5-yl)biphenyl-3-yl)-S,S-dimethylsulfoximide] | 6 nM
CS(=O)(=Nc1ccc(-c2ccc(-c3nc4[nH]c(O[C@@H]5CO[C@H]6[C@@H]5OC[C@H]6O)nc4cc3Cl)cc2)cc1)C1CC1 (stereo partly drawn) [Example 15, N-(4′-(6-Chloro-2-((3R,3aR,6R,6aR)-6-hydroxyhexahydrofuro[3,2-b]furan-3-yloxy)-3H-imidazo[4,5-b]pyridin-5-yl)biphenyl-4-yl)-S-cyclopropyl-S-methylsulfoximide] | 41 nM
C[S@@](=O)(=NC(=O)c1ccc(-c2nc3[nH]c(O[C@@H]4CO[C@H]5[C@@H]4OC[C@H]5O)nc3cc2Cl)cc1)c1ccccc1 [Example 16, (S)-N-4-(6-Chloro-2-((3R,3aR,6R,6aR)-6-hydroxyhexahydrofuro[3,2-b]furan-3-yloxy)-3H-imidazo[4,5-b]pyridin-5-yl)benzoyl-S-methyl-5-phenylsulfoximine] | 245 nM
CS(C)(=N)=Nc1ccc(-c2ccc(-c3nc4[nH]c(O[C@@H]5CO[C@H]6[C@@H]5OC[C@H]6O)nc4cc3Cl)cc2)cc1 [Example 17, N-(4′-(6-Chloro-2-((3R,3aR,6R,6aR)-6-hydroxyhexahydrofuro[3,2-b]furan-3-yloxy)-3H-imidazo[4,5-b]pyridin-5-yl)biphenyl-4-yl)-S,S-dimethyl-sulfondiimine] | 1 nM
CC(C)S(C)(=O)=Nc1ccc(-c2ccc(-c3nc4[nH]c(O[C@@H]5CO[C@H]6[C@@H]5OC[C@H]6O)nc4cc3Cl)cc2)cc1 (stereo partly drawn) [Example 18, N-(4′-(6-Chloro-2-((3R,3aR,6R,6aR)-6-hydroxyhexahydrofuro[3,2-b]furan-3-yloxy)-3H-imidazo[4,5-b]pyridin-5-yl)biphenyl-4-yl)-S-isopropyl-S-methylsulfoximide] | 34 nM
CS(=O)(=NC(=O)c1ccc(-c2nc3[nH]c(O[C@@H]4CO[C@H]5[C@@H]4OC[C@H]5O)nc3cc2Cl)cc1)c1cccnc1 (stereo partly drawn) [Example 19, N-4-(6-Chloro-2-((3R,3aR,6R,6aR)-6-hydroxyhexahydrofuro[3,2-b]furan-3-yloxy)-3H-imidazo[4,5-b]pyridin-5-yl)benzoyl-S-methyl-S-(pyridin-3-yl)-sulfoximine] | 55 nM
CS(=O)(=NC(=O)c1ccc(-c2nc3[nH]c(O[C@@H]4CO[C@H]5[C@@H]4OC[C@H]5O)nc3cc2Cl)cc1)C1CCOCC1 (stereo partly drawn) [Example 20, N-4-(6-Chloro-2-((3R,3aR,6R,6aR)-6-hydroxyhexahydrofuro[3,2-b]furan-3-yloxy)-3H-imidazo[4,5-b]pyridin-5-yl)benzoyl-S-methyl-S-(tetrahydro-2H-pyran-4-yl)-sulfoximine] | 776 nM
O=C(N=S1(=O)CCOCC1)c1ccc(-c2nc3[nH]c(O[C@@H]4CO[C@H]5[C@@H]4OC[C@H]5O)nc3cc2Cl)cc1 [Example 21, 4-[6-Chloro-2-((3R,3aR,6R,6aR)-6-hydroxy-hexahydro-furo[3,2-b]furan-3-yloxy)-3H-imidazo[4,5-b]pyridin-5-yl]-N-(4-oxo-4λ6-[1,4]oxathian-4-ylidene)-benzamide] | 43 nM
O=C(N=S1(=O)CCCCC1)c1ccc(-c2nc3[nH]c(O[C@@H]4CO[C@H]5[C@@H]4OC[C@H]5O)nc3cc2Cl)cc1 [Example 24, 4-[6-Chloro-2-((3R,3aR,6R,6aR)-6-hydroxy-hexahydro-furo[3,2-b]furan-3-yloxy)-3H-imidazo[4,5-b]pyridin-5-yl]-N-(1-oxo-hexahydro-1λ6-thiopyran-1-ylidene)-benzamide] | 215 nM
C[S@](=O)(=NC(=O)c1ccc(-c2nc3[nH]c(O[C@@H]4CO[C@H]5[C@@H]4OC[C@H]5O)nc3cc2Cl)cc1)c1ccccc1 [Example 25, (R)-N-4-(6-Chloro-2-((3R,3aR,6R,6aR)-6-hydroxyhexahydrofuro[3,2-b]furan-3-yloxy)-3H-imidazo[4,5-b]pyridin-5-yl)-benzoyl-S-methyl-5-phenylsulfoximine] | 1200 nM
